Reference: patent publication US5441563A, “Highly insoluble azole embossing inhibitor and the use thereof” (Armstrong World Industries, Inc., priority 1994, dated 1995)
≈ marks a conversion by molar mass, not a printed value. Like-named read-outs stand apart in the source and are kept apart here.

How the values were obtained:
physchem = format: physicochemical; details: for Solubility in H2O / solubility at 24 h: water; for Solubility in H2O: 24 h
[1] = Inhibitor activity (IA), depth of chemical embossing and degree of expansion ranked against BTA-P (Table II); parameters: key to Inhibitor Activity (IA): 1: Excellent; 2: Very Good; 3: Good; 4: Fair; 5: Poor; None; details: for Inhibitor Activity (IA): 10% by weight inhibitor in ink, scale 1 to 5, BTA-P benchmark = 1, 7 mil plastisol, 185 °C, 1.9 min
Description: Table II sets forth a number of properties of the examples and comparative examples which were made and tested. Most of these compounds were prepared using the direct milling procedure and then evaluated for inhibitor activity, ghosting and embossing definition.
The inhibited inks (at 10% by weight inhibitor concentration) were printed on 7 mils of an expandable plastisol coated onto a glass mat which was saturated with a non-expandable plastisol. This was done on a flat-bed gravure proof press using a 100 line screen step-wedge gravure plate. The steps ranged from a deep shadow tone to a shallow highlight tone. The inks printed and dried without any tack.
The printed samples were coated with 10 mils of a clear plastisol wearlayer and heated for 1.9±0.1 minutes at an air temperature of 185°±2° C. in a Werner. Mathis oven to fuse and expand the foamable plastisol to about 14 mils (a 2:1 blow ratio). The thickness of the printed coated areas (i.e., restricted area) was measured in mils and compared to the thickness of the expanded unprinted surrounding areas. This difference was recorded as depth of chemical embossing and was used along with the degree of expansion in the inhibited area to access the inhibitor activity (IA).
The inhibitor activity of the BTA-P derivative was established as the benchmark and on a scale of 1 to 5 was given a rating of 1 (five on the scale being less than one mil of overall chemical embossing). This is a subjective ranking where the other compounds were evaluated for inhibitor activity by comparing them to BTA-P, both numerically and visually.

[2] = Stability of dispersions and ink compositions containing the inhibitor; format: physicochemical; details: direct milling in cationic ink extender CIE 94, about 18 hours
[3] = as above; format: physicochemical; details: for Stability of ink mixture: cationic aqueous ink with cationic dispersion; for Stability of dispersion: cationic dispersion paste, Maquat SC-18
Description: A cationic dispersion of TTA-P was prepared using a quaternary ammonium salt, stearyl dimethylbenzylammonium chloride, (Maquat SC-18, Mason Chemical Co.), as the stabilizer. The product was first diminutized by grinding the coarse powder (TTA-P) for approximately 18 hours in a standard ball mill using a combination of 12 mm diameter spherical and 6 mm diameter×6 mm high cylindrical balls. Approximately 1/2 of the 1 L ball mill volume was filled for the grinding operation. […] The dispersion was then prepared by adding 2.35 parts Maquat SC-18 (85% active) to 37.65 parts deionized water and stirring until dissolved. A total of 40 parts of TTA-P was then added to the surfactant solution in 5 part increments with stirring, followed by agitation with a sonic dismembrator, (Fisher Model 3000). The sonic probe was inserted directly into the suspension and run on the highest setting for 1-2 minutes. A creamy dispersion resulted initially, with viscosity increasing with increasing solids content. The final suspension was a uniform paste with a concentration of 50% by weight solids.
A blue aqueous inhibitor ink was prepared by adding 0.20 parts of CIB 103 Blue Pigment (sold by Penn Color, Inc.) to 20 parts of CIE 94 Extender (sold by Penn Color, Inc.) and stirring to uniform coloration. Then 6.06 parts of the 50% suspension of TTA-P (prepared in Example 4) was then added to the ink mixture and stirred to uniform coloration.
An anionic dispersion paste of TTA-P was prepared with a polyoxyethylene branched nonylphenyl ether phosphate surfactant, (Rhodofac PE-50, Rhone Poulenc). Diminutization of the compound was performed by milling as described in Example 4. Dispersion of the compound was accomplished using the sonic dismembrator, also described in Example 4. Materials were combined in the proportion: 40 parts of deionized water, 2.06 parts of the surfactant and 40 parts of TTA-P. Materials were added in the listed sequence.
The anionic dispersion of TTA-P (Example 6) was added to an anionic ink formulation of Sicpa Corp. The resultant mixture consisted of 20 parts Sicpa Extender 694556, 0.20 parts Sicpa black ink 674554 and 6.06 parts of the 48.7% dispersion of the compound (Example 6).
A portion of BTA-P, the benzotriazole-piperazine derivative, was stably dispersed with the cationic surfactant stearyldimethylbenzylammonium chloride, (Maquat SC-18, Mason Chemical Co.). The compound was milled and dispersed as in Example 4. The materials were combined in the proportion: 20 parts deionized water, 1.18 parts Maquat SC-18, (85% active), and 33.16 parts BTA-P. The materials were added in the listed sequence. […] The paste was 61% by weight of BTA-P.
The cationic dispersion of BTA-P (Example 8) was added to a cationic ink formulation of Penn Color. The mixture consisted of 20 parts Penn Color Extender CIE 94, 0.20 parts Penn Color CIB 103 blue ink and 4.96 parts of the 61% dispersion of BTA-P (Example 8).
A portion of HTTA-P, the hydrogenated tolyltriazolepiperazine derivative, was colloidally dispersed with the cationic surfactant stearyldimethylbenzylammonium chloride, (Maquat SC-18, Mason Chemical Co.). The milling and dispersing procedures of Example 4 were followed. The materials were combined in the proportion: 21 parts deionized water, 1 part Maquat SC-18, (85% active), and 37 parts HTTA-P. The materials were added in the listed sequence. […] The paste was 62.7% by weight of HTTA-P.
The cationic dispersion of HTTA-P (Example 10) was added to a cationic ink formulation of Penn Color. The mixture consisted of 20 parts Extender CIE 94, 0.20 parts CIB 103 blue ink and 4.83 parts of the 62.7% dispersion of HTTA-P (Example 10).
Hitherto, dispersion of these new inhibitors directly into the ink formulation was not considered. The instability problems of other triazole inhibitors seemed to indicate that a surfactant in addition to that found in the ink and extender was required. […]

Compound | Solubility in iPrOH (physchem; 1440 min) [% BY WT] | solubility at 24 h (physchem) [µg/mL] | Inhibitor Activity (IA) [1] | other results
c1ccc2[nH]cnc2c1 [BI, Benzimidazole] |  |  | 2 | Solubility in iPrOH (physchem; isopropyl alcohol, room temperature, 24 hours): 15.30 % BY WT; solubility at 24 h (physchem; H2O, room temperature, 24 hours, read-out: Solubility in H2O): 5000 µg/mL (≈ 42300 µM); Inhibitor effectiveness in words [1]: effective inhibitor
c1ccc2c(c1)ncn2CN1CCN(Cn2cnc3ccccc32)CC1 [BI-P, N,N'-Bis(Benzimidazol-1-yl Methyl) Piperazine] | 0.211 | 530 (≈ 1530 µM) | 1 | 
c1ccc2[nH]nnc2c1 [BTA, Benzotriazole, reference compound] | 53.9 | 19800 (≈ 166000 µM) | 2 | 
O=C(NCn1nnc2ccccc21)NC(=O)NCn1nnc2ccccc21 [BTA-B, 1,5-Bis(Benzotriazol-1'-yl Methyl) Biuret] |  |  | 4 | 
c1ccc(-c2nc(NCn3nnc4ccccc43)nc(NCn3nnc4ccccc43)n2)cc1 [BTA-BG, 2,4-bis(benzotriazol-1'-ylmethyl) benzoguanamine] |  |  | 4 | 
CC(n1nnc2ccccc21)n1c2ccccc2c2ccccc21 (stereo not shown) [BTA-C, 1-(1'-(Carbazo-9'-yl)Ethyl) Benzotriazole, reference compound] |  |  | N | 
c1ccc2c(c1)nnn2Cn1nnc2ccccc21 [BTA-D, reference compound] |  |  | N | 
CN(Cn1nnc2ccccc21)C(=O)N(C)Cn1nnc2ccccc21 [BTA-DMU, 1,3-Bis(benzotriazol-1'-ylmethyl) N,N'-dimethyl urea] |  |  | 3 | 
O=C1CNC(=O)N1Cn1nnc2ccccc21 [BTA-H] |  |  | 5 | 
CS(=O)(=O)NCn1nnc2ccccc21 [BTA-MSA, 1-(1'-methanesulfonamido) methyl benzotriazole] |  |  | 5 | 
O=C(NCn1nnc2ccccc21)c1ccccc1 [BTA-PA, reference compound] |  |  | N | 
CC(N1CCCC1=O)n1nnc2ccccc21 (stereo not shown) [BTA-PY, 1-(1'-(2'-oxopyrrolidin-1'-yl)ethyl) benzotriazole] |  |  | 5 | 
c1ccc2c(c1)nnn2CNc1nc(NCn2nnc3ccccc32)nc(NCn2nnc3ccccc32)n1 [Example 3BTA-M] |  |  | 3 | 
CCCCc1ccc2c(c1)nnn2CNC(=O)NCn1nnc2cc(CCCC)ccc21 [Example 5-BBTA-U, 1,3-Bis(5'-Butyl Benzotriazol-1'-yl Methyl) Urea] |  |  | 3 | 
Cc1ccc2c(c1)nnn2CNC(=O)NCn1nnc2cc(C)ccc21 [Example 5-TTA-U, 1,3-bis(5'-tolyltriazol-1'-ylmethyl) urea] |  |  | 3 | 
N,N'-Bis(Methylcyclohexyltriazol-1-yl Methyl) Piperazine [HTTA-P] |  |  | 1 | Stability of ink mixture [3]: colloidally stable; Stability of dispersion [3]: stable homogenous paste

Now from value to compound, other results behind:

Solubility in iPrOH (physchem; 1440 min) [% BY WT] | solubility at 24 h (physchem) [µg/mL] | Compound | Inhibitor Activity (IA) [1] | other results
> 50 |  | 1Bis(2-ethylhexyl)aminomethyltolyltriazole [TTA-EH, reference compound] | 2 | Solubility in H2O (physchem): < 0.01 % BY WT
> 50 |  | 1Bis(hydroxyethyl)aminomethyltotyltriazole [TTA-HE, reference compound] | 3 | Solubility in H2O (physchem): ~50 % BY WT
0.137 | 110 (≈ 331 µM) | O=C(O)c1ccc(S(=O)(=O)NCn2nnc3ccccc32)cc1 [BTA-4CBSA, N-(Benzotriazol-1-yl Methyl)-4'-Carboxybenzene Sulfonamide] | 1 | 
0.028 | 390 (≈ 1400 µM) | c1ccc2c(c1)nnn2CNCn1nnc2ccccc21 [BTA-A, bis(benzotriazol-1-ylmethyl) amine] | 1 | 
0.120 | 890 (≈ 1790 µM) | O=S(=O)(NCn1nnc2ccccc21)c1cccc(S(=O)(=O)NCn2nnc3ccccc32)c1 [BTA-BDSA, 1(1',3'-benzenedisulfonamido)methyl benzotriazole] | 1 | 
0.914 | 6900 (≈ 20500 µM) | O=C(O)CN(Cn1nnc2ccccc21)Cn1nnc2ccccc21 [BTA-G, N,N-bis(benzotriazol-1-ylmethyl) glycine] | 1 | 
0.019 | 60 (≈ 151 µM) | O=C(NN(Cn1nnc2ccccc21)Cn1nnc2ccccc21)c1ccccc1 [BTA-HYR, 1-Bis(Benzotriazol-1'-yl Methyl)-2-Benzoyl Hydrazide] | 1 | 
0.051 | 510 (≈ 930 µM) | O=S(=O)(NCn1nnc2ccccc21)c1cccc2c(S(=O)(=O)NCn3nnc4ccccc43)cccc12 [BTA-NDSA, 1(1',5'-naphthalenedisulfonamido) methyl benzotriazole] | 1 | 
1.08 | 800 (≈ 2710 µM) | ON(Cn1nnc2ccccc21)Cn1nnc2ccccc21 [BTA-NOH, N,N-bis (benzotriazol-1-yl methyl) hydroxylamine] | 1 | 
0.007 | 10 (≈ 28.7 µM) | c1ccc2c(c1)nnn2CN1CCN(Cn2nnc3ccccc32)CC1 [BTA-P, N,N'-bis(benzotriazol-1-ylmethyl) piperazine] | 1 | Stability of dispersion [2]: homogeneous stable dispersion; Stability of ink mixture [3]: colloidally stable; Stability of dispersion [3]: stable homogenous paste
0.011 | 10 (≈ 29.6 µM) | S=C(NCn1nnc2ccccc21)NCn1nnc2ccccc21 [BTA-TU, 1,3-bis(benzotriazol-1-ylmethyl) thiourea] | 2 | 
0.08 | 20 (≈ 62 µM) | O=C(NCn1nnc2ccccc21)NCn1nnc2ccccc21 [BTA-U, 1,3-bis(benzotriazol-1'-ylmethyl) urea] | 1 | 
52.9 |  | Tolyltriazole [TTA, reference compound] | 2 | Solubility in H2O (physchem): 0.55 % BY WT
